In BindingDB's records for doi:10.1021/jm960305h (National Institute of Diabetes and Digestive and Kidney …, 1997):

How the values were obtained:
[1] = Binding affinity against sigma receptor using radioligand ([3H](+)-pentazocine) binding assay
[2] = as above; remark: listed apart in the source

Row | Structure (SMILES) | IC50 [1] | IC50 [2]
1 | c1ccc(C(OCCN2CCN(CCOC(c3ccccc3)c3ccccc3)CC2)c2ccccc2)cc1 [1,4-Bis-(2-benzhydryloxy-ethyl)-piperazine] | > 10 µM | 
2 | c1ccc(CCCN2CCNCC2)cc1 [1-(3-Phenyl-propyl)-piperazine] |  | 0.109 µM
3 | c1ccc(CCCNCCCCNCCOC(c2ccccc2)c2ccccc2)cc1 [N-(2-Benzhydryloxy-ethyl)-N'-(3-phenyl-propyl)-butane-1,4-diamine] | 1.05 µM | 
4 | C[C@@H]1CN(CCCc2ccccc2)[C@@H](C)CN1 [(2S,5R)-2,5-Dimethyl-1-(3-phenyl-propyl)-piperazine] |  | 0.0085 µM
5 | C[C@@H]1CN(CCOC(c2ccccc2)c2ccccc2)[C@@H](C)CN1CCCc1ccccc1 [(2S,5R)-1-(2-Benzhydryloxy-ethyl)-2,5-dimethyl-4-(3-phenyl-propyl)-piperazine] |  | 0.0086 µM
6 | Fc1ccc(C(OCCN2CCNCC2)c2ccc(F)cc2)cc1 [1-{2-[Bis-(4-fluoro-phenyl)-methoxy]-ethyl}-piperazine] | 0.965 µM | 
7 | CNCCN(C)CCOC(c1ccccc1)c1ccccc1 [N-(2-Benzhydryloxy-ethyl)-N,N'-dimethyl-ethane-1,2-diamine] | 0.231 µM | 
8 | C[C@@H]1CN(CCOC(c2ccccc2)c2ccccc2)[C@@H](C)CN1 [(2S,5R)-1-(2-Benzhydryloxy-ethyl)-2,5-dimethyl-piperazine] | 0.067 µM | 
9 | c1ccc(C(OCCN2CCNCC2)c2ccccc2)cc1 [1-(2-Benzhydryloxy-ethyl)-piperazine] | 1.48 µM | 
10 | c1ccc(CCCN2CCCCN(CCOC(c3ccccc3)c3ccccc3)CC2)cc1 [1-(2-Benzhydryloxy-ethyl)-4-(3-phenyl-propyl)-[1,4]diazocane] | 0.18 µM | 
11 | c1ccc(CCCN2CCCN(CCOC(c3ccccc3)c3ccccc3)CC2)cc1 [1-(2-Benzhydryloxy-ethyl)-4-(3-phenyl-propyl)-[1,4]diazepane] | 0.026 µM | 
12 | c1ccc(CCCN2CCN(CCCc3ccccc3)CC2)cc1 [1,4-Bis-(3-phenyl-propyl)-piperazine] |  | 0.0005 µM
13 | C[C@@H]1CN(CCOC(c2ccccc2)c2ccccc2)[C@@H](C)CN1CCOC(c1ccccc1)c1ccccc1 [(2S,5R)-1,4-Bis-(2-benzhydryloxy-ethyl)-2,5-dimethyl-piperazine] | 4 µM | 
14 | NCCCCNCCOC(c1ccccc1)c1ccccc1 [N*1*-(2-Benzhydryloxy-ethyl)-butane-1,4-diamine] | > 10 µM | 
15 | c1ccc(CCCNC2CCCCN(CCOC(c3ccccc3)c3ccccc3)C2)cc1 (stereo unspecified) [[1-(2-Benzhydryloxy-ethyl)-azepan-3-yl]-(3-phenyl-propyl)-amine] | 0.083 µM | 
16 | c1ccc(CCCN2CCCCC(NCCOC(c3ccccc3)c3ccccc3)C2)cc1 (stereo unspecified) [(2-Benzhydryloxy-ethyl)-[1-(3-phenyl-propyl)-azepan-3-yl]-amine] | 0.078 µM | 
17 | C[C@@H]1CN(CCOC(c2ccc(F)cc2)c2ccc(F)cc2)[C@@H](C)CN1 [(2S,5R)-1-{2-[Bis-(4-fluoro-phenyl)-methoxy]-ethyl}-2,5-dimethyl-piperazine] | 0.065 µM | 
18 | Fc1ccc(C(OCCN2CCN(CCOC(c3ccc(F)cc3)c3ccc(F)cc3)CC2)c2ccc(F)cc2)cc1 [1,4-Bis-{2-[bis-(4-fluoro-phenyl)-methoxy]-ethyl}-piperazine] |  | > 10 µM
19 | C[C@@H]1CN(CCOC(c2ccc(F)cc2)c2ccc(F)cc2)[C@@H](C)CN1CCOC(c1ccc(F)cc1)c1ccc(F)cc1 [(2S,5R)-1,4-Bis-{2-[bis-(4-fluoro-phenyl)-methoxy]-ethyl}-2,5-dimethyl-piperazine] | 3.64 µM | 
20 | CN(CCCc1ccccc1)CCN(C)CCOC(c1ccccc1)c1ccccc1 [N-(2-Benzhydryloxy-ethyl)-N,N'-dimethyl-N'-(3-phenyl-propyl)-ethane-1,2-diamine] | 0.034 µM | 
21 | C[C@@H]1CN(CCCc2ccccc2)[C@@H](C)CN1CCCc1ccccc1 [(2S,5R)-2,5-Dimethyl-1,4-bis-(3-phenyl-propyl)-piperazine] | 0.0085 µM | 
